From ChEMBL document CHEMBL5247586, “Discovery of fusidic acid derivatives as novel STING inhibitors for treatment of sepsis” (Eur J Med Chem, 2022)
The source made the active and inactive calls. The calls are words filed in the database; no cut-off is given here.

Assays:
[1] = Half life in Sprague-Dawley rat administered intragastrically; assay type: ADME; settings: in vivo, po, route ig
[2] = molecular target: T1, Stimulator of interferon genes protein (Mus musculus) (UniProt Q3TBT3); test: (§1) In vivo inhibition of STING in BALB/c mouse model of LPS induced sepsis assessed as inhibition of upregulation of phosphorylated TBK1 mRNA expression at 1.25 to 5 mg/kg, IG administered once a day for 3 days followed by LPS stimulation for 12 hrs starting from 2 hrs post last dose by Western blot analysis; assay type: functional, organism-based; settings: dose 1.25-5 mg/kg, time 86.0 hrs
T1 sequence (whole entry): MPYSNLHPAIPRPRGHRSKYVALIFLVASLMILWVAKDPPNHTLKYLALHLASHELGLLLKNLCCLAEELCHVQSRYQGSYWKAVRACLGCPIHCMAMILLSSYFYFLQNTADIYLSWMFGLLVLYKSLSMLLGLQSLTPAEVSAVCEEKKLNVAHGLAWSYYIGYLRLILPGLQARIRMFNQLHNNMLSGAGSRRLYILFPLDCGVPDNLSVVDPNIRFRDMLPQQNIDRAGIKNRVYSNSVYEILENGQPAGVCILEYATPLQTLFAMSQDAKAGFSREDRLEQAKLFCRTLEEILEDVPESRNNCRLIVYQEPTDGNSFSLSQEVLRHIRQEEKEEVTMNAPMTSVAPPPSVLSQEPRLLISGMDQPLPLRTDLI

[3] = Cytotoxicity against mouse RAW264.7 cells assessed as cell viability at 40 uM measured after 24 hrs by MTT assay relative to control; assay type: toxicity, cell-based; settings: read-out: Activity
[4] = tested on: RAW264.7; test: Anti inflammatory activity in LPS-induced mouse RAW264.7 cells assessed as suppression of IL-6 levels at 0.5 to 2 uM preincubated with compound for 2 hrs followed by LPS stimulation for 6 hrs by ELISA method; assay type: functional, cell-based; settings: dose 0.5-2 µM, time 8.0 hrs
[5] = molecular target: T1, Stimulator of interferon genes protein (Mus musculus); test: Binding affinity to STING in mouse RAW264.7 cells assessed as thermal stabilization at 40 to 61 degree C at 20 uM incubated for 8 hrs by cellular thermal shift assay; assay type: cell-based
[6] = AUC(0 to infinity) in Sprague-Dawley rat administered intragastrically; assay type: ADME; set-up: route ig; settings: in vivo, po
[7] = molecular target: T2, Inhibitor of nuclear factor kappa-B kinase subunit beta (Mus musculus) (UniProt O88351); test: Inhibition of IkappaB phosphorylation in LPS-induced mouse RAW264.7 cells preincubated with compound for 2 hrs followed by LPS stimulation and measured after 6 hrs by Western blot analysis; assay type: cell-based; settings: dose 0.5-2 µM, time 8.0 hrs
T2 sequence (whole entry): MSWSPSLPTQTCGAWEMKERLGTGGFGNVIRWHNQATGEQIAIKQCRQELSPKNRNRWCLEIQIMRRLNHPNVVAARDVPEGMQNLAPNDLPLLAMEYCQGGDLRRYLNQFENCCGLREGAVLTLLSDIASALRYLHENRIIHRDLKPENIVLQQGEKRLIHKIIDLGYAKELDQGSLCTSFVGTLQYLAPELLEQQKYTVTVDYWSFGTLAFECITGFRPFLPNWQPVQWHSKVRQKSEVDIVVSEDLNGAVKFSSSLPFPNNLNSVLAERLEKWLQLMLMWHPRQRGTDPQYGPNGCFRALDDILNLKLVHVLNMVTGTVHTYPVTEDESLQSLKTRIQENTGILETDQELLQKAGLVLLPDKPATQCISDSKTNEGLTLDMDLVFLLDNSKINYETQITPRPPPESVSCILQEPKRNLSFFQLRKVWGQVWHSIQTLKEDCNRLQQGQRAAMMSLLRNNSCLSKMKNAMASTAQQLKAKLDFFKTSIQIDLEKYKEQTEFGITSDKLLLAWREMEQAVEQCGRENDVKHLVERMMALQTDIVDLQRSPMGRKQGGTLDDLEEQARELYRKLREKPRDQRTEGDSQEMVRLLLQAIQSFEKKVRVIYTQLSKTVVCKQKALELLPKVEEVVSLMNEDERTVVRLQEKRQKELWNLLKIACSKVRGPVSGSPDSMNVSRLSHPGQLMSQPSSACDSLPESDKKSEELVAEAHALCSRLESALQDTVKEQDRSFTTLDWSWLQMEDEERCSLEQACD

[8] = tested on: RAW264.7; test: Inhibition of STING protein expression in LPS-induced mouse RAW264.7 cells preincubated with compound for 2 hrs followed by LPS stimulation and measured after 6 hrs by Western blot analysis; assay type: functional, cell-based; settings: dose 0.5-2 µM, time 8.0 hrs
[9] = tested on: Mus musculus; test: Antiinflammatory activity in BALB/c mouse model of LPS induced sepsis assessed as inhibition of IL-6 production at 1.25 to 5 mg/kg, IG administered once a day for 3 days followed by LPS stimulation for 12 hrs starting from 2 hrs post last dose by qRT-PCR analysis; assay type: functional, organism-based; settings: dose 1.25-5 mg/kg, time 86.0 hrs
[10] = AUC(0 to t) in Sprague-Dawley rat administered intragastrically; assay type: ADME; set-up: route ig; settings: in vivo, po
[11] = molecular target: T3, Serine/threonine-protein kinase TBK1 (Mus musculus) (UniProt Q9WUN2); test: Inhibition of TBK1 phosphorylation in LPS-induced mouse RAW264.7 cells preincubated with compound for 2 hrs followed by LPS stimulation and measured after 6 hrs by Western blot analysis; assay type: cell-based; settings: dose 0.5-2 µM, time 8.0 hrs
T3 sequence (whole entry): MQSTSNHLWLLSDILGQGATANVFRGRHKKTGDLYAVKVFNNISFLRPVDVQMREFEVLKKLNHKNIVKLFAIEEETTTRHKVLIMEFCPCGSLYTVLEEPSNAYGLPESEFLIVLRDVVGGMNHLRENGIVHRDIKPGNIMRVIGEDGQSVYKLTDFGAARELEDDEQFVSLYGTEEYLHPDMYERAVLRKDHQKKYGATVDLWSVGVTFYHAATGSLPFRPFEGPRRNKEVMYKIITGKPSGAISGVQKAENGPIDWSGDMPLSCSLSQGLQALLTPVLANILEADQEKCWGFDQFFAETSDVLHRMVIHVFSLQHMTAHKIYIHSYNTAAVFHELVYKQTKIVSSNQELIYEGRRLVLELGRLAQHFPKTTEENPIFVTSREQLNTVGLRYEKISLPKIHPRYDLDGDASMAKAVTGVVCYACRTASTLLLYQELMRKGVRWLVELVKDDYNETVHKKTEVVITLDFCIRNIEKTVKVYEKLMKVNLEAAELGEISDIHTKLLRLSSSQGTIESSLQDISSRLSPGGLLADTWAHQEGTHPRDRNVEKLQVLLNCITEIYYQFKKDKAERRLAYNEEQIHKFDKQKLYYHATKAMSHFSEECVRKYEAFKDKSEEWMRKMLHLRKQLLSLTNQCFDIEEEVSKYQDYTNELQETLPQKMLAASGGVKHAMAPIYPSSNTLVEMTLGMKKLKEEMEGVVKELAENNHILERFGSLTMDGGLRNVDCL

[12] = tested on: RAW264.7; test: Anti inflammatory activity in LPS-induced mouse RAW264.7 cells assessed as suppression of TNF-alpha levels at 0.5 to 2 uM preincubated with compound for 2 hrs followed by LPS stimulation for 6 hrs by ELISA method; assay type: functional, cell-based; settings: dose 0.5-2 µM, time 8.0 hrs
[13] = MRT(0 to infinity) in Sprague-Dawley rat administered intragastrically; assay type: ADME; settings: in vivo, po, route ig
[14] = molecular target: T1, Stimulator of interferon genes protein (Mus musculus); test: as §1, with “p65 protein” for “TBK1 mRNA”; assay type: functional, organism-based; settings: dose 1.25-5 mg/kg, time 86.0 hrs
[15] = tested on: Mus musculus; test: Protective activity against LPS induced sepsis in BALB/c mouse model of acute liver injury assessed as improvement in blurred boundaries in liver tissue at 1.25 to 5 mg/kg, IG administered once a day for 3 days followed by LPS stimulation for 12 hrs starting from 2 hrs post last dose by hematoxylin and eosin staining based analysis; assay type: functional, organism-based; settings: dose 1.25-5 mg/kg, time 86.0 hrs

half-life [1]: 1.11 h
inhibition [2]: Active
Activity [5]: Active
AUC(0-inf) [6]: 136 ng·h/mL
inhibition [7]: Dose-Dependent Effect
AUC(0-t) [10]: 81.1 ng·h/mL
inhibition [11]: Dose-Dependent Effect
MRT inf [13]: 2.02 h
inhibition [14]: Active
Compound: C=CCONC(=O)CCSSCCC(=O)O[C@@H]1CC[C@@]2(C)[C@@H](CC[C@@]3(C)[C@H]2[C@H](O)C[C@H]2/C(=C(\CCC=C(C)C)C(=O)OCc4ccccc4)[C@@H](OC(C)=O)C[C@@]23C)[C@@H]1C
viability at 24 h, 40 µM [3]: 91.1%
Activity [4]: Active
inhibition [8]: Dose-Dependent Effect
inhibition [9]: Active
Activity [12]: Active
Activity [15]: Active
